These results are taken from patent publication US5670546A, “N-Arylalkylphenylacetamide derivatives” (Korean Research Institute of Chemical Technology, priority 1995, dated 1997).

Molecules are shown by their SMILES.

Data set [1] has as its system KTC-ICR mice. Briefly: acetic acid induced writhing test (analgesic effect). The data set is classed as in vivo. To be noted: for ED50: Mus musculus, ip, read-out: ED50 acetic acid. How it is done:
(§1) Physiological activities of the compounds obtained in Examples 1 to 11 were measured by employing acetic acid or phenyl-1,4-benzoquinone(PBQ) induced writhing test.
(§2) The KTC-ICR mice provided by Experimental Animal Laboratory of Korea Research Institute of Chemical Technology were used as test animals. […] They were tested in a group consisting of 8 mice for each dosage of a test compound after having been adjusted to the testing environment for a week. Food and water were given freely; and illumination was maintained on a 12-hour cycle.
(§3) Test solutions were prepared by dissolving one of the final products obtained in Examples 1 to 11 in distilled water containing 1% of Tween and 5% ethanol in a pre-determined concentration. The test solutions were used after serial dilution depending on each dosage.
(§4) The test solutions were intraperitoneally administered in a dose of 0.1 ml per 10 g of a body weight. 0.1 ml of 1% acetic acid solution or 0.1 ml of 0.02% PBQ solution was administered after 60 minutes in case of oral administration or after 30 minutes in case of subcutaneous injection.
(§5) Then, the number of writhings generated during a period of 10 minutes after 3 minutes from the administration of acetic acid was measured. In case of the administration of PBQ, the number of writhings generated during a period of 5 minutes after 5 minutes from the administration was measured.
(§6) For a comparison purpose, initially, distilled water containing 1% of Tween and 5% ethanol alone was administered to the control group. Then, the control groups were subjected the same procedure as the test groups.
(§7) The number of writhings suffered by the test group was compared with that of the control group; and the analgesic effect was measured in terms of the percentage of inhibition of writhing(I. W.). [formula] wherein: A is the number of writhings suffered by the control group; and
(§8) B is the number of writhings suffered by the test group.
(§9) I.W. values for each dosage were calculated by employing regression analysis. The amount of a test compound which is required in reducing the frequency of writhings to the 50% level of that generated by the control group, i.e., B=0.5A or I.W.=50%, is designated as ED50 (mg/kg of a body weight). Therefore, a lower value of ED50 represents a higher analgesic effect of the tested compound.
Background: An intraperitoneal irritant provokes the stretching counted in writhing tests.

Data set [2] concerns KTC-ICR mice. Briefly: phenyl-1,4-benzoquinone (PBQ) induced writhing test (analgesic effect). The data set is classed as in vivo. To be noted: Mus musculus, ip, read-out: ED50 PBQ. How it is done: as §1, §2, §3, §4, §5, §6, §7, §8, §9
The subject of a further data set is test animals. The data set can be described thus: toxicity test: behavioral changes in the test animals observed by the naked eye. The data set is classed as in vivo, KTC-ICR mice. Also on record: key to Convulsion / Salivation / Urination: score; normal value 0, higher number = greater side effects. To be noted: score; for Convulsion / Salivation / Urination: normal value 0; for Dyspnoea / Ptosis / Sedation / Vasodilation: normal value 4. How it is done:
In order to monitor a harmful side-effect or toxicity of the present compounds, various behavioral changes in the test animals were observed. After the test and the control solutions were administered to the animals, symptoms such as sedation, ptosis, dyspnoea, vasodilation, convulsion, salivation and urination were observed by the naked eye and the level of such changes was represented by a numbering system: that is, the normal value of the last three behaviors(i.e., urination, convulsion and salivation) is 0; and that of the others(i.e., sedation, ptosis, dyspnoea and vasodilation) is 4. The higher the number is, the greater the side effects are.

Setting [3] is: acetic acid induced writhing, 50% reduction of writhings vs control group, mice 20 to 25 g.
Where [4] appears, read: PBQ induced writhing, 50% reduction of writhings vs control group, mice 14 to 18 g.

Take `COc1cc(CC(=O)NCCCc2ccc(C)c(C)c2)ccc1OCCNC(=O)c1ccccc1OC(C)=O` [Example 11, N-{3-(3,4-dimethylphenyl)propyl}-4-[2-{N-(2-acetoxybenzoyl)}aminoethoxy]-3-methoxyphenylacetamide]: the ED50 with KTC-ICR mice [1] (setting [3]) was determined as 4.15 mg/kg.

On to `CCOC(=O)NCCOc1ccc(CC(=O)NCCCc2ccc(C)c(C)c2)cc1OC` [Example 10, N-{3-(3,4-dimethylphenyl)propyl}-4-{2-(N-ethyloxycarbonyl)aminoethoxy}-3-methoxyphenylacetamide], for which, in the data set with KTC-ICR mice [1] (setting [3]), the ED50 acetic acid is listed as > 10 mg/kg of a body weight.

Consider `CNCCOc1ccc(CC(=O)NCCCc2ccc(C)c(C)c2)cc1OC` [Example 8, N-{3-(3,4-dimethylphenyl)propyl}-4-(2-methylaminoethoxy)-3-methoxyphenylacetamide], for which, in the data set on KTC-ICR mice [2] (setting [4]), the ED50 was determined as 0.68 mg/kg.

Consider `CC(C)Cc1ccc(C(C)C(=O)O)cc1` (stereo not shown) [Ibuprofen], for which the ED50 in the data set with KTC-ICR mice [2] (setting [4]) is 11 mg/kg.

For the compound `COc1cc(CNC(=O)CCCC/C=C/C(C)C)ccc1O` [Capsaicin, Nvanillyl-trans-8-methyl-6-nonenamide, reference compound], the ED50 in the data set with KTC-ICR mice [1] was found to be 1.34 mg/kg.

Take `COc1cc(CC(=O)NCCCc2ccc(C)c(C)c2)ccc1OCCNCCN` [Example 4, N-{3-(3,4-dimethylphenyl)propyl}-4-[2-{N-(2-aminoethyl)}aminoethoxy]-3-methoxyphenylacetamide]: in the data set on KTC-ICR mice [1] (setting [3]), the ED50 worked out at 1.78 mg/kg.

In the data set on test animals (Amount 0.2 mgg), `COc1cc(CC(=O)NCCCc2ccc(C)c(C)c2)ccc1OCCN` [Control, reference compound] showed a Convulsion of 1, a Salivation of 0, a Urination of 0 and a Dyspnoea of 4. In the data set on test animals (Amount 0.2 mgg), this compound had a Ptosis of 4, a Sedation of 4 and a Vasodilation of 4. In addition, in the data set on test animals (Amount 0.25 mgg), the Convulsion came out at 1, the Salivation was found to be 0, the Urination worked out at 0 and the Dyspnoea stood at 5. Also, in the data set on test animals (Amount 0.25 mgg), the Ptosis is 6, the Sedation stood at 6 and the Vasodilation is 5. In addition, in the data set with test animals (Amount 0.5 mgg), the Convulsion is recorded as 1, the Salivation worked out at 0, the Urination is on record as 0 and the Dyspnoea was found to be 6. In the data set on test animals (Amount 0.5 mgg), this compound had a Ptosis of 7, a Sedation of 7 and a Vasodilation of 5. Further, in the data set on test animals (Amount 1 mgg), the Convulsion is 1, the Salivation amounted to 0, the Urination amounted to 0 and the Dyspnoea was 6. In the data set with test animals (Amount 1 mgg), the Ptosis is given as 7, the Sedation is 7 and the Vasodilation stood at 6.

In the case of `COc1cc(CC(=O)NCCCc2ccc(C)c(C)c2)ccc1OCCNC(=O)OCc1ccccc1` [Example 7, N-{3-(3,4-dimethylphenyl)propyl}-4-{2-(N-benzyloxycarbonyl)aminoethoxy}-3-methoxyphenylacetamide], the ED50 in the data set on KTC-ICR mice [1] (setting [3]) was found to be 1.51 mg/kg.

As to `COc1cc(CC(=O)NCCCc2ccc(C)c(C)c2)ccc1OCCO` [Example 1, N-{3-(3,4-dimethylphenyl)propyl}-4-(2-hydroxyethoxy)-3-methoxyphenylacetamide], in the data set with KTC-ICR mice [1] (setting [3]), the ED50 was found to be 2.01 mg/kg. Further, in the data set with test animals (Amount 1 mgg), the Convulsion came to 0, the Salivation was determined as 0, the Urination is 0 and the Dyspnoea is 4. In the data set on test animals (Amount 1 mgg), this compound had a Ptosis of 4, a Sedation of 4 and a Vasodilation of 4. In the data set on test animals (Amount 2 mgg), this compound returned a Convulsion of 0, a Salivation of 0, a Urination of 0 and a Dyspnoea of 4. In the data set on test animals (Amount 2 mgg), this compound had a Ptosis of 4, a Sedation of 4 and a Vasodilation of 4. In the data set with test animals (Amount 4 mgg), this compound registered a Convulsion of 0, a Salivation of 0, a Urination of 0 and a Dyspnoea of 5. In the data set on test animals (Amount 4 mgg), this compound displayed a Ptosis of 5, a Sedation of 6 and a Vasodilation of 5.

In the case of `COc1cc(CC(=O)NCCCc2ccc(C)c(C)c2)ccc1OCCN(CCO)CCO` [Example 3, N-{3-(3,4-dimethylphenyl)propyl}-4-[2-{N,N-di(2-hydroxyethyl)}aminoethoxy]-3-methoxyphenylacetamide], the ED50 with KTC-ICR mice [1] (setting [3]) amounted to 1.41 mg/kg. In the data set with test animals (Amount 1.25 mgg), this compound showed a Convulsion of 0, a Salivation of 0, a Urination of 0 and a Dyspnoea of 4. For the same compound, in the data set with test animals (Amount 1.25 mgg), the Ptosis is 4, the Sedation was 4 and the Vasodilation is listed as 4. In the data set on test animals (Amount 2.5 mgg), the Convulsion came to 0, the Salivation amounted to 0, the Urination is on record as 0 and the Dyspnoea was 4. In the data set on test animals (Amount 2.5 mgg), this compound showed a Ptosis of 5, a Sedation of 5 and a Vasodilation of 4. Moreover, in the data set on test animals (Amount 5 mgg), the Convulsion turned out to be 0, the Salivation worked out at 0, the Urination stood at 0 and the Dyspnoea is reported as 6. In the data set on test animals (Amount 5 mgg), the Ptosis was 7, the Sedation is listed as 6 and the Vasodilation amounted to 5.

For `CCCCC1C(=O)N(c2ccccc2)N(c2ccccc2)C1=O` [Phenylbutazone], in the data set on KTC-ICR mice [2] (setting [4]), the ED50 was determined as 79.8 mg/kg.

Turning to `COc1cc(CC(=O)NCCCc2ccc(C)c(C)c2)ccc1OCCN1CCNCC1` [Example 5, N-{3-(3,4-dimethylphenyl)propyl}-4-(2-piperazinylethoxy)-3-methoxyphenylacetamide], in the data set on KTC-ICR mice [1] (setting [3]), the ED50 was more than 20 mg/kg. In the data set with test animals (Amount 1 mgg), the Convulsion is recorded as 0, the Salivation was 0, the Urination is listed as 0 and the Dyspnoea came out at 4. In the data set on test animals (Amount 1 mgg), this compound yielded a Ptosis of 4, a Sedation of 4 and a Vasodilation of 4. In the data set on test animals (Amount 2 mgg), this compound came in with a Convulsion of 0, a Salivation of 0, a Urination of 0 and a Dyspnoea of 4. Further, in the data set with test animals (Amount 2 mgg), the Ptosis is reported as 4, the Sedation is 4 and the Vasodilation is listed as 4. In the data set on test animals (Amount 4 mgg), this compound yielded a Convulsion of 0, a Salivation of 0, a Urination of 0 and a Dyspnoea of 4. In addition, in the data set on test animals (Amount 4 mgg), the Ptosis was 6, the Sedation came to 6 and the Vasodilation is 4.

For the compound `COc1cc(CC(=O)NCCCc2ccc(C)c(C)c2)ccc1OCCNC=O` [Example 6], the ED50 in the data set with KTC-ICR mice [1] (setting [3]) came to 0.26 mg/kg.

Take `COc1ccc2cc([C@H](C)C(=O)O)ccc2c1` [Naproxen]: in the data set on KTC-ICR mice [2] (setting [4]), the ED50 stood at 17.1 mg/kg.

In the case of `CC(=O)Oc1ccccc1C(=O)O` [Aspirin], the ED50 with KTC-ICR mice [2] amounted to 71.4 mg/kg.

`CCCCCCCC/C=C\CCCCCCCC(=O)NCc1ccc(O)c(OC)c1` [NE-19550, Nvanillyloleamide, reference compound]: in the data set on KTC-ICR mice [1], the ED50 was found to be 15.7 mg/kg.

Turning to `COc1cc(CC(=O)NCCCc2ccc(C)c(C)c2)ccc1OCCN1CCCC1` [Example 9, N-{3-(3,4-dimethylphenyl)propyl}-4-{2-(1-pyrrolidinyl)ethoxy}-3-methoxyphenylacetamide], the ED50 in the data set with KTC-ICR mice [1] (setting [3]) is more than 5 mg/kg.

In the case of `CCCCCCCC/C=C\CCCCCCCC(=O)NCc1ccc(OCCN)c(OC)c1` [NE-21610, N{4(2-aminoethoxy)-3-methoxybenzyl)-oleamide, reference compound], the ED50 with KTC-ICR mice [1] (setting [3]) was more than 300 mg/kg; with KTC-ICR mice [2] (setting [4]) it was 38.3 mg/kg.

The ED50 is the dose at which the effect has come halfway, by size or by number of responders.
